Reference: ChEMBL document CHEMBL1152441, “Discovery of [18F]N-(2-(diethylamino)ethyl)-6-fluoronicotinamide: a melanoma positron emission tomography imaging radiotracer with high tumor to body contrast ratio and rapid renal clearance” (J Med Chem, 2009)

Key:
[1] = Biodistribution in tumor of mouse B16F0 cells implanted C57BL/6J mouse assessed per gram of tissue at 0.4 to 5.5 MBq, iv after 3 hrs by gamma counter; type: ADME, organism-based, Neoplasm; details: in vivo
Intestine [2] = experiment: Biodistribution in intestine of mouse B16F0 cells implanted C57BL/6J mouse assessed per gram of tissue at 0.4 to 5.5 MBq, iv after 0.5 hrs by gamma counter; type: ADME, organism-based; details: in vivo
Intestine [3] = experiment: Biodistribution in intestine of mouse B16F0 cells implanted C57BL/6J mouse assessed per gram of tissue at 0.4 to 5.5 MBq, iv after 2 hrs by gamma counter; type: ADME, organism-based; details: in vivo
Spleen [4] = experiment: Biodistribution in spleen of mouse B16F0 cells implanted C57BL/6J mouse assessed per gram of tissue at 0.4 to 5.5 MBq, iv after 0.5 hrs by gamma counter; type: ADME, organism-based; details: in vivo
Bone [5] = experiment: Biodistribution in bone of mouse B16F0 cells implanted C57BL/6J mouse assessed per gram of tissue at 0.4 to 5.5 MBq, iv after 6 hrs by gamma counter; type: ADME, organism-based, Bone element; details: in vivo
Stomach [6] = experiment: Biodistribution in stomach of mouse B16F0 cells implanted C57BL/6J mouse assessed per gram of tissue at 0.4 to 5.5 MBq, iv after 3 hrs by gamma counter; type: ADME, organism-based; details: in vivo
Intestine [7] = experiment: Biodistribution in intestine of mouse B16F0 cells implanted C57BL/6J mouse assessed per gram of tissue at 0.4 to 5.5 MBq, iv after 6 hrs by gamma counter; type: ADME, organism-based; details: in vivo
[8] = Biodistribution in eye of mouse B16F0 cells implanted C57BL/6J mouse assessed per gram of tissue at 0.4 to 5.5 MBq, iv after 1 hr by gamma counter; type: ADME, organism-based; details: in vivo
Intestine [9] = experiment: Biodistribution in intestine of mouse B16F0 cells implanted C57BL/6J mouse assessed per gram of tissue at 0.4 to 5.5 MBq, iv after 3 hrs by gamma counter; type: ADME, organism-based; details: in vivo
[10] = Biodistribution in tumor of mouse B16F0 cells implanted C57BL/6J mouse assessed per gram of tissue at 0.4 to 5.5 MBq, iv after 0.5 hrs by gamma counter; type: ADME, organism-based, Neoplasm; details: in vivo
[11] = Biodistribution in eye of mouse B16F0 cells implanted C57BL/6J mouse assessed per gram of tissue at 0.4 to 5.5 MBq, iv after 3 hrs by gamma counter; type: ADME, organism-based; details: in vivo
[12] = Biodistribution in eye of mouse B16F0 cells implanted C57BL/6J mouse assessed per gram of tissue at 0.4 to 5.5 MBq, iv after 0.25 hrs by gamma counter; type: ADME, organism-based; details: in vivo
[13] = Biodistribution in tumor of mouse B16F0 cells implanted C57BL/6J mouse assessed per gram of tissue at 0.4 to 5.5 MBq, iv after 6 hrs by gamma counter; type: ADME, organism-based, Neoplasm; details: in vivo
[14] = Biodistribution in tumor of mouse B16F0 cells implanted C57BL/6J mouse assessed per gram of tissue at 0.4 to 5.5 MBq, iv after 2 hrs by gamma counter; type: ADME, organism-based, Neoplasm; details: in vivo
Thyroid gland [15] = experiment: Biodistribution in thyroid of mouse B16F0 cells implanted C57BL/6J mouse assessed per gram of tissue at 0.4 to 5.5 MBq, iv after 2 hrs by gamma counter; type: ADME, organism-based; details: in vivo
Spleen [16] = experiment: Biodistribution in spleen of mouse B16F0 cells implanted C57BL/6J mouse assessed per gram of tissue at 0.4 to 5.5 MBq, iv after 3 hrs by gamma counter; type: ADME, organism-based; details: in vivo
Lung [17] = experiment: Biodistribution in lung of mouse B16F0 cells implanted C57BL/6J mouse assessed per gram of tissue at 0.4 to 5.5 MBq, iv after 3 hrs by gamma counter; type: ADME, organism-based; details: in vivo
Lung [18] = experiment: Biodistribution in lung of mouse B16F0 cells implanted C57BL/6J mouse assessed per gram of tissue at 0.4 to 5.5 MBq, iv after 6 hrs by gamma counter; type: ADME, organism-based; details: in vivo
Lung [19] = experiment: Biodistribution in lung of mouse B16F0 cells implanted C57BL/6J mouse assessed per gram of tissue at 0.4 to 5.5 MBq, iv after 0.25 hrs by gamma counter; type: ADME, organism-based; details: in vivo
[20] = Lipophilicity, log P at pH 7.5; type: physicochemical; details: buffer
Thyroid gland [21] = experiment: Biodistribution in thyroid of mouse B16F0 cells implanted C57BL/6J mouse assessed per gram of tissue at 0.4 to 5.5 MBq, iv after 1 hr by gamma counter; type: ADME, organism-based; details: in vivo
Spleen [22] = experiment: Biodistribution in spleen of mouse B16F0 cells implanted C57BL/6J mouse assessed per gram of tissue at 0.4 to 5.5 MBq, iv after 1 hr by gamma counter; type: ADME, organism-based; details: in vivo
Stomach [23] = experiment: Biodistribution in stomach of mouse B16F0 cells implanted C57BL/6J mouse assessed per gram of tissue at 0.4 to 5.5 MBq, iv after 6 hrs by gamma counter; type: ADME, organism-based; details: in vivo
Bone [24] = experiment: Biodistribution in bone of mouse B16F0 cells implanted C57BL/6J mouse assessed per gram of tissue at 0.4 to 5.5 MBq, iv after 0.5 hrs by gamma counter; type: ADME, organism-based, Bone element; details: in vivo
Bone [25] = experiment: Biodistribution in bone of mouse B16F0 cells implanted C57BL/6J mouse assessed per gram of tissue at 0.4 to 5.5 MBq, iv after 0.25 hrs by gamma counter; type: ADME, organism-based, Bone element; details: in vivo
Spleen [26] = experiment: Biodistribution in spleen of mouse B16F0 cells implanted C57BL/6J mouse assessed per gram of tissue at 0.4 to 5.5 MBq, iv after 0.25 hrs by gamma counter; type: ADME, organism-based; details: in vivo
Bone [27] = experiment: Biodistribution in bone of mouse B16F0 cells implanted C57BL/6J mouse assessed per gram of tissue at 0.4 to 5.5 MBq, iv after 1 hr by gamma counter; type: ADME, organism-based, Bone element; details: in vivo
Spleen [28] = experiment: Biodistribution in spleen of mouse B16F0 cells implanted C57BL/6J mouse assessed per gram of tissue at 0.4 to 5.5 MBq, iv after 2 hrs by gamma counter; type: ADME, organism-based; details: in vivo
Intestine [29] = experiment: Biodistribution in intestine of mouse B16F0 cells implanted C57BL/6J mouse assessed per gram of tissue at 0.4 to 5.5 MBq, iv after 1 hr by gamma counter; type: ADME, organism-based; details: in vivo
Stomach [30] = experiment: Biodistribution in stomach of mouse B16F0 cells implanted C57BL/6J mouse assessed per gram of tissue at 0.4 to 5.5 MBq, iv after 0.25 hrs by gamma counter; type: ADME, organism-based; details: in vivo
Stomach [31] = experiment: Biodistribution in stomach of mouse B16F0 cells implanted C57BL/6J mouse assessed per gram of tissue at 0.4 to 5.5 MBq, iv after 0.5 hrs by gamma counter; type: ADME, organism-based; details: in vivo
Bone [32] = experiment: Biodistribution in bone of mouse B16F0 cells implanted C57BL/6J mouse assessed per gram of tissue at 0.4 to 5.5 MBq, iv after 3 hrs by gamma counter; type: ADME, organism-based, Bone element; details: in vivo
Thyroid gland [33] = experiment: Biodistribution in thyroid of mouse B16F0 cells implanted C57BL/6J mouse assessed per gram of tissue at 0.4 to 5.5 MBq, iv after 6 hrs by gamma counter; type: ADME, organism-based; details: in vivo
[34] = Biodistribution in eye of mouse B16F0 cells implanted C57BL/6J mouse assessed per gram of tissue at 0.4 to 5.5 MBq, iv after 2 hrs by gamma counter; type: ADME, organism-based; details: in vivo
Thyroid gland [35] = experiment: Biodistribution in thyroid of mouse B16F0 cells implanted C57BL/6J mouse assessed per gram of tissue at 0.4 to 5.5 MBq, iv after 3 hrs by gamma counter; type: ADME, organism-based; details: in vivo
[36] = Biodistribution in tumor of mouse B16F0 cells implanted C57BL/6J mouse assessed per gram of tissue at 0.4 to 5.5 MBq, iv after 0.25 hrs by gamma counter; type: ADME, organism-based, Neoplasm; details: in vivo

Work on `CCN(CC)CCNC(=O)c1ccc([18F])nc1` yielded a Drug uptake [1] of 7.8%, a Drug uptake (Intestine [2]) of 3.9% and a Drug uptake (Intestine [3]) of 0.71%. It also gave a Drug uptake (Spleen [4]) of 7.2%, a Drug uptake (Bone [5]) of 0.52% and a Drug uptake (Stomach [6]) of 0.83%. For the same compound, the Drug uptake (Intestine [7]) was 0.13%, the Drug uptake [8] was 18.8% and the Drug uptake (Intestine [9]) was 0.54%. The Drug uptake [10] was 8.6%, the Drug uptake [11] was 17.3% and the Drug uptake [12] was 14.7%. It also gave a Drug uptake [13] of 7.7%, a Drug uptake [14] of 9.4% and a Drug uptake (Thyroid gland [15]) of 0.61%. The Drug uptake (Spleen [16]) was 0.89%, the Drug uptake (Lung [17]) was 0.25% and the Drug uptake (Lung [18]) was 0.07%. It also gave a Drug uptake (Lung [19]) of 5.6%, a logD [20] of 1.1 and a Drug uptake (Thyroid gland [21]) of 3.3%. It also gave a Drug uptake (Spleen [22]) of 2.4%, a Drug uptake (Stomach [23]) of 0.19% and a Drug uptake (Bone [24]) of 2.1%. For the same compound, the Drug uptake (Bone [25]) was 3.5%, the Drug uptake (Spleen [26]) was 8.6% and the Drug uptake (Bone [27]) was 1.4%. The Drug uptake (Spleen [28]) was 1.8%, the Drug uptake (Intestine [29]) was 2.1% and the Drug uptake (Stomach [30]) was 9.4%. The Drug uptake (Stomach [31]) was 6.6%, the Drug uptake (Bone [32]) was 0.62% and the Drug uptake (Thyroid gland [33]) was 0.17%. For the same compound, the Drug uptake [34] was 17.3%, the Drug uptake (Thyroid gland [35]) was 0.49% and the Drug uptake [36] was 7%.
